In series [1] the test system is bile duct cannulated rats. Put plainly: Excretion of heme and bilirubin in bile after infusion of exogenous heme.
The test system of series [2] is bile duct cannulated rats. Put plainly: Output of biliary iron by graphite furnace atomic absorption analysis. The series is classed as in vivo. The following applies: after administration of Sn-PP; representative study, typical of all animals studied.
Series [3] has as its system bile duct cannulated rats. Briefly: Excretion of heme and bilirubin in bile after infusion of heat-damaged erythrocytes. The series is classed as in vivo.

On to `C=Cc1c2[n-]c(c1C)/C=c1\[n-]/c(c(C)c1C=C)=C\c1[n-]c(c(CCC(=O)O)c1C)C=c1[n-]/c(c(C)c1CCC(=O)O)=C\2.[Sn+4]` [Sn-PP, tin protoporphyrin-IX], for which the biliary heme excretion entry is “prompt and marked increase” in series [1] (5 rats, heme 6.1 µmol/kg b.w. i.v. bolus plus Sn-PP 10 µmol/kg b.w. i.v. at the same time); “prompt and marked increase” in series [3] (8 rats, heat-damaged erythrocytes i.v. bolus (equivalent to 8.5 umol heme/kg b.w.) plus Sn-PP 10 umol/kg b.w. i.v., pyridine hemochromogen method). Besides, the “amounts of heme excreted in bile relative to control animals treated with heme alone” value in series [1] (heme 6.1 µmol/kg b.w. plus Sn-PP 10 µmol/kg b.w. i.v.) is 3-4 fold. Besides, the “increase in biliary bilirubin resulting from the infusion of heme” value in series [1] (heme 6.1 µmol/kg b.w. plus Sn-PP 10 µmol/kg b.w. i.v., all animals) is listed as “diminished”. Besides, the “amounts of heme excreted in bile” value in series [1] (heme 6.1 µmol/kg b.w. plus Sn-PP 10 µmol/kg b.w. i.v., mean) was 51 % of the dose of heme injected. Besides, the “output of biliary iron” value in series [2] is given as “incresed markedly”. Besides, the “combined amounts of heme plus bilirubin in bile” value in series [3] (heat-damaged erythrocytes plus Sn-PP 10 umol/kg b.w. i.v., average, similar in the control group) is “about 50 % of the dose of heme administered”. For the same compound, the “increase in biliary bilirubin output” value in series [3] (heat-damaged erythrocytes plus Sn-PP 10 umol/kg b.w. i.v., in all but one Sn-PP treated animal) was “greatly diminished”.

For `C=CC1=C(C)c2cc3[n-]c(cc4[n-]c(cc5nc(cc1n2)C(C)=C5C=C)c(C)c4CCC(=O)O)c(CCC(=O)O)c3C.[Fe+2]` [heme, ferroprotoporphyrin IX], in series [1] (heme alone, 6.1 µmol/kg b.w. i.v. bolus, average), the “total amount of exogenous heme recovered in the bile as both heme and bilirubin” value is 32 % of the dose administered. Besides, the “total amount of heme excreted in the bile” value in series [1] (heme alone, 6.1 µmol/kg b.w. i.v. bolus, average of 5 rats) is on record as 14 % of the dose injected.
